Measured values published in article PMC11062894, “Protein-based bandpass filters for controlling cellular signaling with chemical inputs” (Nature Chemical Biology, 2023).

Test system: GEMS receptors with CBPvene (Bcl2–LD3 and Bcl2high variants), STAT3-driven SEAP in HEK293T cells
Assay: GEMS SEAP reporter assay, CBPvene (Bcl2high, LD3-v and Bcl2-v variants) with venetoclax
Assay type: cell-based
[1] = Supp Fig 10a, Bcl2-v6, venetoclax 1000 nM
[2] = Supp Fig 10a, Bcl2-v6, venetoclax 3160 nM
[3] = Supp Fig 10a, Bcl2-v6, venetoclax 10000 nM
[4] = Supp Fig 10a, Bcl2, venetoclax 316 nM
[5] = Supp Fig 10a, Bcl2, venetoclax 1000 nM
[6] = Supp Fig 10a, Bcl2, venetoclax 3160 nM
[7] = Supp Fig 10a, Bcl2, venetoclax 10000 nM
[8] = Supp Fig 10b, Bcl2-v1, venetoclax 1 nM
[9] = Supp Fig 10b, Bcl2-v1, venetoclax 3.16 nM
[10] = Supp Fig 10b, Bcl2-v1, venetoclax 10 nM
[11] = Supp Fig 10b, Bcl2-v1, venetoclax 31.6 nM
[12] = Supp Fig 10b, Bcl2-v1, venetoclax 100 nM
[13] = Supp Fig 10b, Bcl2-v1, venetoclax 316 nM
[14] = Supp Fig 10b, Bcl2-v1, venetoclax 1000 nM
[15] = Supp Fig 10b, Bcl2-v1, venetoclax 3160 nM
[16] = Supp Fig 10b, Bcl2-v1, venetoclax 10000 nM
[17] = Supp Fig 10b, Bcl2-v2, venetoclax 1 nM
[18] = Supp Fig 10b, Bcl2-v2, venetoclax 3.16 nM
[19] = Supp Fig 10b, Bcl2-v2, venetoclax 10 nM
[20] = Supp Fig 10b, Bcl2-v2, venetoclax 31.6 nM
[21] = Supp Fig 10b, Bcl2-v2, venetoclax 100 nM
[22] = Supp Fig 10b, Bcl2-v2, venetoclax 316 nM
[23] = Supp Fig 10b, Bcl2-v2, venetoclax 1000 nM
[24] = Supp Fig 10b, Bcl2-v3, venetoclax 1 nM
[25] = Supp Fig 10b, Bcl2-v3, venetoclax 3.16 nM
[26] = Supp Fig 10b, Bcl2-v3, venetoclax 10 nM
[27] = Supp Fig 10b, Bcl2-v3, venetoclax 31.6 nM
[28] = Supp Fig 10b, Bcl2-v3, venetoclax 100 nM
[29] = Supp Fig 10b, Bcl2-v3, venetoclax 316 nM
[30] = Supp Fig 10b, Bcl2-v3, venetoclax 1000 nM
[31] = Supp Fig 10b, Bcl2-v3, venetoclax 3160 nM
[32] = Supp Fig 10b, Bcl2-v3, venetoclax 10000 nM
[33] = Supp Fig 10b, Bcl2-v4, venetoclax 1 nM
[34] = Supp Fig 10b, Bcl2-v4, venetoclax 3.16 nM
[35] = Supp Fig 10b, Bcl2-v4, venetoclax 10 nM
[36] = Supp Fig 10b, Bcl2-v4, venetoclax 31.6 nM

`CC1(C)CCC(CN2CCN(c3ccc(C(=O)NS(=O)(=O)c4ccc(NCC5CCOCC5)c([N+](=O)[O-])c4)c(Oc4cnc5[nH]ccc5c4)c3)CC2)=C(c2ccc(Cl)cc2)C1` [Venetoclax] was tested, and the SEAP [1] was 19.2478, the “SEAP normalized (max=100)” value [1] was 45.9867 and the SEAP [2] was 13.59. The “SEAP normalized (max=100)” value [2] was 32.4691, the SEAP [3] was 7.797 and the “SEAP normalized (max=100)” value [3] was 18.6277. For the same molecule, the SEAP [4] was 206.027, the “SEAP normalized (max=100)” value [4] was 100 and the SEAP [5] was 118.152. For the same molecule, the “SEAP normalized (max=100)” value [5] was 57.3479, the SEAP [6] was 9.9385 and the “SEAP normalized (max=100)” value [6] was 4.824. The SEAP [7] was 6.696, the “SEAP normalized (max=100)” value [7] was 3.25 and the SEAP [8] was 44.2279. The “SEAP normalized (max=100)” value [8] was 81.6306, the SEAP [9] was 50.6217 and the “SEAP normalized (max=100)” value [9] was 93.4314. The SEAP [10] was 46.5279, the “SEAP normalized (max=100)” value [10] was 85.8756 and the SEAP [11] was 52.0969. For the same molecule, the “SEAP normalized (max=100)” value [11] was 96.1542, the SEAP [12] was 54.1806 and the “SEAP normalized (max=100)” value [12] was 100. The SEAP [13] was 42.1946, the “SEAP normalized (max=100)” value [13] was 77.8778 and the SEAP [14] was 16.2179. For the same molecule, the “SEAP normalized (max=100)” value [14] was 29.933, the SEAP [15] was 5.677 and the “SEAP normalized (max=100)” value [15] was 10.4785. For the same molecule, the SEAP [16] was 3.434, the “SEAP normalized (max=100)” value [16] was 6.3381 and the SEAP [17] was 36.2682. The “SEAP normalized (max=100)” value [17] was 14.0118, the SEAP [18] was 38.2081 and the “SEAP normalized (max=100)” value [18] was 14.7612. The SEAP [19] was 49.7513, the “SEAP normalized (max=100)” value [19] was 19.2208 and the SEAP [20] was 115.969. For the same molecule, the “SEAP normalized (max=100)” value [20] was 44.8031, the SEAP [21] was 258.841 and the “SEAP normalized (max=100)” value [21] was 100. The SEAP [22] was 180.703, the “SEAP normalized (max=100)” value [22] was 69.8126 and the SEAP [23] was 50.1494. For the same molecule, the “SEAP normalized (max=100)” value [23] was 19.3746, the SEAP [24] was 40.7727 and the “SEAP normalized (max=100)” value [24] was 77.7639. The SEAP [25] was 41.3533, the “SEAP normalized (max=100)” value [25] was 78.8713 and the SEAP [26] was 40.3779. For the same molecule, the “SEAP normalized (max=100)” value [26] was 77.0109, the SEAP [27] was 52.4314 and the “SEAP normalized (max=100)” value [27] was 100. For the same molecule, the SEAP [28] was 43.8328, the “SEAP normalized (max=100)” value [28] was 83.6002 and the SEAP [29] was 28.8093. The “SEAP normalized (max=100)” value [29] was 54.9466, the SEAP [30] was 14.8804 and the “SEAP normalized (max=100)” value [30] was 28.3807. For the same molecule, the SEAP [31] was 13.0836, the “SEAP normalized (max=100)” value [31] was 24.9537 and the SEAP [32] was 6.8. The “SEAP normalized (max=100)” value [32] was 12.9702, the SEAP [33] was 29.6608 and the “SEAP normalized (max=100)” value [33] was 89.6354. The SEAP [34] was 26.3749, the “SEAP normalized (max=100)” value [34] was 79.7051 and the SEAP [35] was 26.5882. The “SEAP normalized (max=100)” value [35] was 80.3497, the SEAP [36] was 28.0379 and the “SEAP normalized (max=100)” value [36] was 84.7308. The SEAP (Supp Fig 10b, Bcl2-v4, venetoclax 100 nM) was 26.0079.
